Measurements published in patent publication US7642378B2, “Lipid lowering biphenylcarboxamides” (Janssen Pharmaceutica NV, priority 2001, dated 2010).

Columns and labels:
Secretion of ApoB = test: Quantification of the secretion of ApoB; format: cell-based; conditions: HepG2 cells, 24 hours of incubation with test compound
Method: HepG2 cells were cultured in 24-well plates in MEM Rega 3 containing 10% fetal calf serum. At 70% confluency, the medium was changed and the test compound or carrier (DMSO, 0.4% final concentration) was added. After 24 hours of incubation, the medium was transferred to Eppendorf tubes and cleared by centrifugation. A sheep antibody directed against either apoB was added to the supernatant and the mixture was kept at 8° C. for 24 hours. Then, rabbit anti-sheep antibody was added and the immune complex was allowed to precipitate for 24 hours at 8° C. The immunoprecipitate was pelleted by centrifugation for 25 minutes at 1320 g and washed twice with a buffer containing 40 mM Mops, 40 mM NaH2PO4, 100 mM NaF, 0.2 mM DTT, 5 mM EDTA, 5 mM EGTA, 1% Triton-X-100, 0.5% sodium deoxycholate (DOC), 0.1% SDS, 0.2 μM leupeptin and 0.2 μM PMSF. Radioactivity in the pellet was quantified by liquid scintillation counting.
Resulting IC50 values are enumerated in Table C. 1.

melting point [°C]	pIC50 values (=−log IC50 value) (Secretion of ApoB)	SMILES
119.9 to 120	–	COC(=O)CNC(=O)C(c1ccccc1)C1CCN(c2ccc(NC(=O)c3ccccc3-c3ccc(C(C)(C)C)cc3)cc2)CC1 (stereo not drawn) [Co. No. 145, (B)—N-[[1-[4-[[[4′-(1,1-dimethylethyl)[1,1′-biphenyl]-2-yl]carbonyl]amino]phenyl]-4-piperidinyl]phenylacetyl]-glycine methyl ester]
106	–	COC(=O)COC(=O)C(c1ccccc1)N1CCN(c2ccc(NC(=O)c3ccccc3-c3ccc(C(F)(F)F)cc3)cc2)CC1 (stereo not drawn) [Co. No. 14, 2-methoxy-2-oxoethyl α-phenyl-4-[4-[[[4′-(trifluoromethyl)[1,1′-biphenyl]-2-yl]carbonyl]amino]phenyl]-1-piperazineacetate]
–	6.591	COC(=O)COC(=O)C(c1ccccc1)N1CCN(c2ccc(NC(=O)c3ccccc3-c3ccc(C(F)(F)F)cc3)cc2)CC1 (stereo not drawn) [compound 14]
